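Where inhibition never reached the appropriate level, the endpoint shown equals the highest concentration tested. Otherwise, values were interpolated linearly from a five-concentration, 48-hour dose response in 96-well plates. GI50: concentration for 50% inhibition of growth. TGI denotes the concentration required for complete inhibition of growth.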
How the values were obtained:
Experiment in all cases: inhibition of tumour cell growth, NCI panel, 48 h
[1] = system: A498 renal
[2] = system: SNB-19 CNS
[3] = system: SNB-75 CNS
[4] = system: UO-31 renal
[5] = system: SK-MEL-2 melanoma
[6] = system: 786-0 renal
[7] = system: K-562 leukemia
[8] = system: T-47D breast
[9] = system: MDA-MB-231 breast
[10] = system: UACC-257 melanoma
[11] = system: NCI/ADR-RES ovarian
[12] = system: HCT-116 colon
[13] = system: SN12C renal
[14] = system: HS 578T breast
[15] = system: A549 NSCLC
[16] = system: SK-OV-3 ovarian
[17] = system: MOLT-4 leukemia
[18] = system: SF-539 CNS
[19] = system: ACHN renal
[20] = system: U251 CNS
[21] = system: PC-3 prostate
[22] = system: MALME-3M melanoma
[23] = system: MCF7 breast
[24] = system: RXF 393 renal
[25] = system: RPMI-8226 leukemia
[26] = system: BT-549 breast
[27] = system: TK-10 renal
[28] = system: EKVX NSCLC
[29] = system: NCI-H23 lung

`C#C[C@]1(O)CC[C@H]2[C@@H]3CC=C4c5sc(Nc6cccc(Cl)n6)nc5CC[C@]4(C)[C@H]3CC[C@@]21C` was tested. Which GI50 [1] did it give?
The GI50 was 897 nM.

And the TGI [1]?
The TGI was 2250 nM.

What about the GI50 [2] of the same molecule?
The GI50 was 1170 nM.

What about the TGI [2] of the same molecule?
Its TGI is 2820 nM.

What about the GI50 [3] of the same molecule?
Its GI50 is 815 nM.

And the TGI [3]?
The TGI was 6540 nM.

And the GI50 [4]?
The GI50 was 576 nM.

And the TGI [4]?
Its TGI is 1870 nM.

What about the GI50 [5] of the same molecule?
Its GI50 is 1190 nM.

What about the TGI [5] of the same molecule?
Its TGI is 3340 nM.

What about the GI50 [6] of the same molecule?
Its GI50 is 226 nM.

And the TGI [6]?
Its TGI is 610 nM.

What about the GI50 [7] of the same molecule?
The GI50 was 327 nM.

What about the TGI [7] of the same molecule?
Its TGI is 1710 nM.

What about the GI50 [8] of the same molecule?
Its GI50 is 1840 nM.

What about the TGI [8] of the same molecule?
The TGI was 5310 nM.

And the GI50 [9]?
Its GI50 is 1060 nM.

And the TGI [9]?
Its TGI is 2690 nM.

What about the GI50 [10] of the same molecule?
Its GI50 is 491 nM.

And the TGI [10]?
The TGI was 1820 nM.

And the GI50 [11]?
Its GI50 is 1820 nM.

What about the TGI [11] of the same molecule?
The TGI was 5570 nM.

And the GI50 [12]?
The GI50 was 565 nM.

And the TGI [12]?
The TGI was 1920 nM.

What about the GI50 [13] of the same molecule?
The GI50 was 1600 nM.

And the TGI [13]?
The TGI was 3380 nM.

What about the GI50 [14] of the same molecule?
Its GI50 is 338 nM.

What about the TGI [14] of the same molecule?
Its TGI is 1550 nM.

What about the GI50 [15] of the same molecule?
Its GI50 is 1200 nM.

And the TGI [15]?
Its TGI is 3550 nM.

What about the GI50 [16] of the same molecule?
Its GI50 is 867 nM.

What about the TGI [16] of the same molecule?
The TGI was 2710 nM.

And the GI50 [17]?
Its GI50 is 301 nM.

And the TGI [17]?
Its TGI is 1170 nM.

What about the GI50 [18] of the same molecule?
The GI50 was 204 nM.

What about the TGI [18] of the same molecule?
The TGI was 636 nM.

What about the GI50 [19] of the same molecule?
Its GI50 is 856 nM.

What about the TGI [19] of the same molecule?
Its TGI is 2930 nM.

And the GI50 [20]?
The GI50 was 428 nM.

What about the TGI [20] of the same molecule?
Its TGI is 2050 nM.

What about the GI50 [21] of the same molecule?
Its GI50 is 460 nM.

What about the TGI [21] of the same molecule?
The TGI was 3110 nM.

What about the GI50 [22] of the same molecule?
Its GI50 is 1060 nM.

And the TGI [22]?
The TGI was 2620 nM.

What about the GI50 [23] of the same molecule?
Its GI50 is 550 nM.

And the TGI [23]?
Its TGI is 2400 nM.

And the GI50 [24]?
Its GI50 is 122 nM.

And the TGI [24]?
Its TGI is 349 nM.

And the GI50 [25]?
Its GI50 is 208 nM.

And the TGI [25]?
The TGI was 618 nM.

And the GI50 [26]?
The GI50 was 903 nM.

What about the TGI [26] of the same molecule?
The TGI was 2360 nM.

What about the GI50 [27] of the same molecule?
Its GI50 is 1790 nM.

And the TGI [27]?
Its TGI is 4060 nM.

What about the GI50 [28] of the same molecule?
Its GI50 is 1290 nM.

What about the TGI [28] of the same molecule?
Its TGI is 6740 nM.

What about the GI50 [29] of the same molecule?
Its GI50 is 1610 nM.

What about the TGI [29] of the same molecule?
Its TGI is 4770 nM.
